Measured values: PubChem BioAssay AID2060626 (Molecular Pharmacology Branch, DTP, NCI, 2025)
Values belong to the compound of their own block, whether it stands above or below them.

System: 168753-222-R-J1-PDC complex spheroid viability
Assay: Anticancer human tumor 168753-222-R-J1-PDC patient-derived bladder carcinoma cell line growth inhibition [CLK]
Settings: for IC50: curve of first compound; for viability, T/C: stronger effect = lower value
Procedure, shortened: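 Multi-cell-type spheroids combined patient-derived tumor cells with HUVEC endothelial cells and human mesenchymal stem cells. Paired agents were dosed in half-log steps down from about clinical Cmax, or from 10 microM where Cmax was unknown.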

[1] = second compound 0.0316 µM, first compound 0.0316 µM
[2] = second compound 0.0316 µM, first compound 0.1 µM
[3] = second compound 0.0316 µM, first compound 0.316 µM
[4] = second compound 0.0316 µM, first compound 1 µM
[5] = second compound 0.1 µM, first compound 0.0316 µM
[6] = second compound 0.1 µM, first compound 0.1 µM
[7] = second compound 0.1 µM, first compound 0.316 µM
[8] = second compound 0.1 µM, first compound 1 µM
[9] = second compound 0.316 µM, first compound 0.0316 µM
[10] = second compound 0.316 µM, first compound 0.1 µM
[11] = second compound 0.316 µM, first compound 0.316 µM
[12] = second compound 0.316 µM, first compound 1 µM
[13] = second compound 1 µM, first compound 0.0316 µM
[14] = second compound 1 µM, first compound 0.1 µM
[15] = second compound 1 µM, first compound 0.316 µM
[16] = second compound 1 µM, first compound 1 µM
[17] = second compound 3.16 µM, first compound 0.0316 µM
[18] = second compound 3.16 µM, first compound 0.1 µM
[19] = second compound 3.16 µM, first compound 0.316 µM
[20] = second compound 3.16 µM, first compound 1 µM
[21] = second compound 10 µM, first compound 0.0316 µM
[22] = second compound 10 µM, first compound 0.1 µM
[23] = second compound 10 µM, first compound 0.316 µM
[24] = second compound 10 µM, first compound 1 µM
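Further: viability measured after seven days of drug exposure.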
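Wherever viability, T/C is given: luminescence signal used as surrogate for viable cell amount; 100% = DMSO vehicle control wells.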

- IC50 (second compound 0.0316 µM): 0.13 µM
- IC50 (second compound 0.1 µM): > 10 µM
- IC50 (second compound 0.316 µM): > 10 µM
- IC50 (second compound 1 µM): < 0.0316 µM
- IC50 (second compound 3.16 µM): < 0.0316 µM
- IC50 (second compound 10 µM): < 0.0316 µM
Compound: CC(=O)O[C@H]1C(=O)[C@@]2(C)[C@H]([C@H](OC(=O)c3ccccc3)[C@]3(O)C[C@H](OC(=O)[C@H](O)[C@@H](NC(=O)c4ccccc4)c4ccccc4)C(C)=C1C3(C)C)[C@]1(OC(C)=O)CO[C@@H]1C[C@@H]2O + CNC(=O)c1ccc(Nc2nc(OC3CCCC3)c3c(-c4ccc5nc(C)oc5c4)c[nH]c3n2)c(OC)c1
- viability, T/C [1]: 74.5%
- viability, T/C [2]: 39.9%
- viability, T/C [3]: 30.9%
- viability, T/C [4]: 33.1%
- viability, T/C (second compound 0.0316 µM, first compound 3.16 µM): 53.4%
- viability, T/C (second compound 0.0316 µM, first compound 10 µM): 53.2%
- viability, T/C [5]: 80.8%
- viability, T/C [6]: 64.2%
- viability, T/C [7]: 64.6%
- viability, T/C [8]: 67.7%
- viability, T/C (second compound 0.1 µM, first compound 3.16 µM): 86.6%
- viability, T/C (second compound 0.1 µM, first compound 10 µM): 88.2%
- viability, T/C [9]: 79.1%
- viability, T/C [10]: 80.5%
- viability, T/C [11]: 77.5%
- viability, T/C [12]: 79.9%
- viability, T/C (second compound 0.316 µM, first compound 3.16 µM): 85%
- viability, T/C (second compound 0.316 µM, first compound 10 µM): 93.9%
- viability, T/C [13]: 52.3%
- viability, T/C [14]: 34.7%
- viability, T/C [15]: 41.2%
- viability, T/C [16]: 29.4%
- viability, T/C (second compound 1 µM, first compound 3.16 µM): 52.9%
- viability, T/C (second compound 1 µM, first compound 10 µM): 62.7%
- viability, T/C [17]: 20.9%
- viability, T/C [18]: 22.2%
- viability, T/C [19]: 26.7%
- viability, T/C [20]: 31.1%
- viability, T/C (second compound 3.16 µM, first compound 3.16 µM): 29.9%
- viability, T/C (second compound 3.16 µM, first compound 10 µM): 36.4%
- viability, T/C [21]: 20.9%
- viability, T/C [22]: 18.6%
- viability, T/C [23]: 23.8%
- viability, T/C [24]: 29.1%
- viability, T/C (second compound 10 µM, first compound 3.16 µM): 35.4%
- viability, T/C (second compound 10 µM, first compound 10 µM): 31.4%

- IC50 (second compound 0.0316 µM): 0.118 µM
- IC50 (second compound 0.1 µM): 0.201 µM
- IC50 (second compound 0.316 µM): 0.0518 µM
- IC50 (second compound 1 µM): < 0.00316 µM
- IC50 (second compound 3.16 µM): < 0.00316 µM
- IC50 (second compound 10 µM): < 0.00316 µM
Compound: CCc1c2c(nc3ccc(O)cc13)-c1cc3c(c(=O)n1C2)COC(=O)[C@]3(O)CC + CNC(=O)c1ccc(Nc2nc(OC3CCCC3)c3c(-c4ccc5nc(C)oc5c4)c[nH]c3n2)c(OC)c1
- viability, T/C (second compound 0.0316 µM, first compound 0.00316 µM): 109%
- viability, T/C (second compound 0.0316 µM, first compound 0.01 µM): 96.2%
- viability, T/C [1]: 77.2%
- viability, T/C [2]: 48.9%
- viability, T/C [3]: 35.8%
- viability, T/C [4]: 14.6%
- viability, T/C (second compound 0.1 µM, first compound 0.00316 µM): 99.1%
- viability, T/C (second compound 0.1 µM, first compound 0.01 µM): 87.4%
- viability, T/C [5]: 87.8%
- viability, T/C [6]: 50.8%
- viability, T/C [7]: 48.8%
- viability, T/C [8]: 12.8%
- viability, T/C (second compound 0.316 µM, first compound 0.00316 µM): 82.1%
- viability, T/C (second compound 0.316 µM, first compound 0.01 µM): 88.2%
- viability, T/C [9]: 62.5%
- viability, T/C [10]: 30.1%
- viability, T/C [11]: 24.6%
- viability, T/C [12]: 8.79%
- viability, T/C (second compound 1 µM, first compound 0.00316 µM): 35.1%
- viability, T/C (second compound 1 µM, first compound 0.01 µM): 29.9%
- viability, T/C [13]: 17.4%
- viability, T/C [14]: 14.1%
- viability, T/C [15]: 14.8%
- viability, T/C [16]: 11.5%
- viability, T/C (second compound 3.16 µM, first compound 0.00316 µM): 18.8%
- viability, T/C (second compound 3.16 µM, first compound 0.01 µM): 18.2%
- viability, T/C [17]: 13%
- viability, T/C [18]: 12.1%
- viability, T/C [19]: 13.3%
- viability, T/C [20]: 10.3%
- viability, T/C (second compound 10 µM, first compound 0.00316 µM): 16.9%
- viability, T/C (second compound 10 µM, first compound 0.01 µM): 15.3%
- viability, T/C [21]: 16.1%
- viability, T/C [22]: 12.6%
- viability, T/C [23]: 13.1%
- viability, T/C [24]: 7.91%
